Consider four molecules from patent US11078251B2, “T cell receptors (TCR) and uses thereof for the diagnosis and treatment of diabetes” (INSERM (INSTITUT NATIONAL DE LA SANTÉ ET DE LA RECHERCHE …, priority 2015, dated 2021).

No end group written: not given here.

As usually defined, the Kd is a measure of binding affinity in units of concentration.

Test [1] relates to lytic activity of D222D clone 2 against peptide-pulsed LCL target cells. The test can be described thus: Cytotoxic mechanism: ZnT8-specific lysis of LCL targets by D222D clone 2 in the presence of inhibitors. The test is classed as cell-based, human. The settings on record: 4 h co-culture; concanamycin A 100 nM, brefeldin A 5 μg/ml, anti-FasL mAb 5 μg/ml. Here is the method: FIG. 6. […]; left to right). Live FarRed^+ target cells were counted at the end of the culture and normalized to a fixed amount of beads added to each well. Percent lysis is noted for each dot plot, calculated as 100×(live targets cultured alone)−(live targets in the presence of T cells)/(live targets cultured alone). B. Lysis of LCL targets pulsed with the indicated peptides and cultured with D222D clones at different E/T ratios. Percent lysis was calculated as above and depicted as mean±SEM of two independent experiments with clone 2 and 3, with data depicted in panel (A) used for clone 3. Similar profiles were obtained for clone 1 (not shown). C. ZnT8-specific lysis of peptide-pulsed LCL target cells co-cultured for 4 h with D222D clone 2 without inhibitors (−) or in the presence of concanamycin A (CMA, 100 nM), brefeldin A (BFA, 5 μg/ml), anti-FasL mAb (aFasL, clone NOK-1; 5 μg/ml) or IgG1 isotype control. *p<0.05 by Wilcoxon signed-rank test. Results are mean±SEM of triplicate measurements from one representative experiment out two performed.
LCL pulsed with 10 μM of the indicated peptide, K562-A2/ZnT8 or K562/A2 target cells were labeled with CellTrace FarRed (Life Technologies) and dispensed in 96-well flat-bottom plates at 10^5/well. Different numbers of CFSE-labeled T cells were added and co-cultured for 6-24 h, as indicated. […]

Test [2] deals with recombinant HLA-A2 molecules (Homo sapiens, UniProt P04439, /I119V/I121R/I166T/I218V/N151K/N90K/P208A/P217A/Q86G/Q94H/R138H/R169H). Put plainly: Affinity and stability measurements of recombinant HLA-A2 molecules complexed with peptide. Format: binding.
Test [3] has as its target recombinant HLA-A2 molecules (Homo sapiens, UniProt P04439, D140Y/D185E/D98H/E176V/E277Q/G131W/G231S/I119V/I121R/I166T/I218V/N151K/N90K/P208A/P217A/Q86G/Q94H/R138H/R169H). Described as above. Format: binding. To be noted: recombinant HLA-A2 complexed with peptide; data not shown.

In the case of `C[C@H]1CCC/C=C/[C@@H]2C[C@H](O)C[C@H]2[C@H](O)/C=C/C(=O)O1` [brefeldin A], in test [1], the “inhibition of lytic activity” value is “not”.
On to VAANIVLTV [ZnT8186-194], for which the Kd in test [2] stood at 15 nM.
As for `C/C=C/[C@H]1O[C@@](O)([C@@H](C)[C@H](O)[C@H](C)[C@H]2OC(=O)/C(OC)=C/C(C)=C/[C@@H](C)[C@@H](O)[C@@H](CC)[C@@H](O)[C@H](C)C/C(C)=C/C=C/[C@@H]2OC)C[C@@H](O[C@H]2C[C@@H](O)[C@H](OC(N)=O)[C@@H](C)O2)[C@@H]1C` [concanamycin A], in test [1], the “inhibition of lytic activity” value is “completely inhibited”.
Turning to AVAANIVLTV [ZnT8185-194], the Kd in test [3] is 207 nM.
